Source: ChEMBL document CHEMBL5532675, “Discovery of 4-Ethoxy-6-chloro-5-azaindazoles as Novel PDE4 Inhibitors for the Treatment of Alcohol Use Disorder and Alcoholic Liver Diseases” (J Med Chem, 2024)

Tests used:
[1] = molecular target: T1, 3',5'-cyclic-AMP phosphodiesterase 4D (Homo sapiens, UniProt Q08499); assay: Inhibition of PDE4D7 (unknown origin) using FAM-cyclic-3',5'-AMP as substrate at 100 nM incubated for 1 hrs by fluorescence polarization based IMAP assay relative to control
[2] = molecular target: T1, 3',5'-cyclic-AMP phosphodiesterase 4D; assay: Inhibition of PDE4D7 (unknown origin) using FAM-cyclic-3',5'-AMP as substrate at 10 nM incubated for 1 hrs by fluorescence polarization based IMAP assay relative to control

T1 sequence (Q08499 whole entry): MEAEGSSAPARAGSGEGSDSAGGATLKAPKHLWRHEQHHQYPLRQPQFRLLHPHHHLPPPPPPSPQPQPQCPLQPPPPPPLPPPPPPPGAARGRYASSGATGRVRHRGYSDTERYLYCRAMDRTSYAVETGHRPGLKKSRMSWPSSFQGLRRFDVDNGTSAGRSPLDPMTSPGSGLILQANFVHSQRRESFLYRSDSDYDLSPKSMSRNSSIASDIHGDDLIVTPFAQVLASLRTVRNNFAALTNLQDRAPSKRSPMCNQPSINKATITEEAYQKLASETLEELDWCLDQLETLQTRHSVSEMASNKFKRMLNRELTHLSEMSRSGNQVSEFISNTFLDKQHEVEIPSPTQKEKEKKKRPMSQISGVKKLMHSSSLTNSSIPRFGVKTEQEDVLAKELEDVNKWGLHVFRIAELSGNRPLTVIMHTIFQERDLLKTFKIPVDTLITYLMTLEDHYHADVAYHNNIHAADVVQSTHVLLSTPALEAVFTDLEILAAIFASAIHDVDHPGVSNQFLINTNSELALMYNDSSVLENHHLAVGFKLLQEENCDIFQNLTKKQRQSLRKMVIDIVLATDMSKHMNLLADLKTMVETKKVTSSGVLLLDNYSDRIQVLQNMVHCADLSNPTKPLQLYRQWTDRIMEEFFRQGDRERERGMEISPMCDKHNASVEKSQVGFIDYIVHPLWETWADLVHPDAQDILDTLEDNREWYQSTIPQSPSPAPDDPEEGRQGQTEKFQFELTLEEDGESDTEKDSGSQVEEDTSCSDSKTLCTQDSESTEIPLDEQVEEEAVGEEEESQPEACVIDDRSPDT

| Structure (SMILES) | inhibition [1] | inhibition [2] |
| --- | --- | --- |
| CCOc1nc(Cl)cc2c1cnn2Cc1cccnc1 | 5% |  |
| CCOc1nc(Cl)cc2c1c(C1CC1)nn2CCCC(=O)O | 13% | 8% |
| CCOc1nc(Cl)cc2c1c(/C=C/c1ccc(OC)cc1)nn2CCCC(=O)O | 5% | 2% |
| CCOc1nc(Cl)cc2nn(CC3CCCO3)cc12 (stereo not drawn) | 10% |  |
| CCOc1nc(Cl)cc2c1cnn2CCO | 4% | 3% |
| CCOc1nc(Cl)cc2c1cnn2CCC(=O)NO | 18% | 9% |
| CCOc1nc(Cl)cc2nn(C3CCOCC3)cc12 | 35% |  |
| CCOc1nc(Cl)cc2c1c(CC)nn2CCCC(=O)O | 48% | 15% |
| CCOc1nc(Cl)cc2c1c(-c1ccncc1)nn2CCCC(=O)O | 24% | 5% |
| CCOc1nc(Cl)cc2c1c(-c1ccc(OC)cc1)nn2CCCC(=O)O | 16% | 7% |
| CCOc1nc(Cl)cc2c1c(Nc1ccccc1)nn2CCCC(=O)O | 9% | 7% |
| CCOc1nc(Cl)cc2c1c(C(F)(F)F)nn2CCCC(=O)O | 53% | 23% |
| CCOc1nc(Cl)cc2c1cnn2CC(=O)O | 3% | 3% |
| CCOc1nc(Cl)cc2c1c(NCC(C)C)nn2CCCC(=O)O | 27% | 6% |
| CNc1nc(Cl)cc2nn(C3CCOCC3)cc12 | 17% |  |
| CCOc1nc(C)cc2c1cnn2C1CCOCC1 | 5% |  |
| CCOc1nc(Cl)cc2c1cnn2CC#N | 5% | 3% |
| CCOc1nc(Cl)cc2c1cnn2CC1CCOC1 (stereo not drawn) | 9% |  |
| CCOc1nc(Cl)cc2c1cnn2CC(=O)N(C)O | 8% | 5% |
| CCOc1nc(Cl)cc2c1cnn2CCCO | 8% | 5% |
| CCOc1nccc2c1cnn2C1CCOCC1 | 1% |  |
| CCOc1nc(Cl)cc2c1cnn2C1CCS(=O)(=O)CC1 | 3% |  |
| CCOc1nc(Cl)cc2c1cnn2CCCCO | 6% | 5% |
| CCOc1nc(Cl)cc2nn(-c3cccc(OC)c3)cc12 | 8% |  |
| CCOc1nc(Cl)cc2c1cnn2CC(=O)NOC | 6% | 4% |
| CCOc1nc(Cl)cc2c1cnn2C(C)c1ccc(C(F)(F)F)cc1 (stereo not drawn) | 14% |  |
| CCOc1nc(Cl)cc2nn(CC(=O)O)cc12 | 7% | 5% |

Continued, values first:

| inhibition [1] | inhibition [2] | Structure (SMILES) |
| --- | --- | --- |
| 11% | 6% | CCOc1nc(Cl)cc2c1c(C)nn2CCCC(=O)O |
| 11% | 6% | CCOc1nc(Cl)cc2c1c(C1CCCCC1)nn2CCCC(=O)O |
| 7% |  | CCOc1nc(Cl)cc2c1cnn2CC1(C)COC1 |
| 19% | 8% | CCOc1nc(Cl)cc2c1cnn2CCC(=O)O |
| 4% |  | CCOc1nc(Cl)cc2c1cnn2CC1CCCO1 (stereo not drawn) |
| 7% |  | CCOc1nc(Cl)cc2c1cnn2-c1cccc(OC)c1 |
| 9% | 4% | CCOc1nc(Cl)cc2c1c(-c1cccnc1)nn2CCCC(=O)O |
| 3% | 3% | CCOc1nc(Cl)cc2c1cnn2CC(N)=O |
| 6% | 3% | CCOc1nc(Cl)cc2c1c(-c1cccc(OC)c1)nn2CCCC(=O)O |
| 5% |  | CCOc1nc(Cl)cc2c1cnn2-c1ccc(OC)cc1 |
| 3% | 4% | CCOc1nc(Cl)cc2nn(CCCCO)cc12 |
| 8% | 6% | CCOc1nc(Cl)cc2nn(CCCC(=O)O)cc12 |
| 4% | 4% | CCOc1nc(Cl)cc2c1cnn2CC(=O)NC |
| 5% |  | CCOc1nc(Cl)cc2c1cnn2C1CCSCC1 |
| 18% | 4% | CCOc1nc(Cl)cc2c1c(NCc1ccccc1)nn2CCCC(=O)O |
| 19% | 5% | CCOc1nc(Cl)cc2c1cnn2CCCC(=O)NO |
| 5% | 6% | CCOc1nc(Cl)cc2nn(CCO)cc12 |
